From PMC12174726 (Chemmedchem, 2025)
Entries after “also recorded” stand apart in the source; their conditions may differ. Like-named read-outs stand apart in the source and are kept apart here. Residues, ends and D or L forms follow the SMILES beside them. *: point of attachment. Cbz = O=C(OCc1ccccc1)*

Assays:
SU‐DHL‐10 cells = test: MTT proliferation assay, SU‐DHL‐10; type: cell-based; settings: for IC50: Homo sapiens, n = 2, read-out: IC50 (cell proliferation)
Procedure: (§1) Lymphoma cell lines were exposed to a large range of concentrations of each compound as single agent for 24 h or 72 h, followed by MTT and after 4 h SDS to stop the reaction. The day after, plates were read using a Cytation 3 plate reader (Biotek) and IC50s were calculated. DMSO was used as a control (untreated). IC50 is defined as the drug concentration giving 50% of proliferating cells compared to vehicle treated cells. IC50 was calculated by fitting the values via nonlinear regression (GraphPad Prism 8.0). Values represent mean ± S.D.

CBP [1] = target: T1, CBP (Homo sapiens, UniProt Q92793); test: Western blot of CBP levels in SU‐DHL‐10 cells; type: cell-based; design: WB analysis of CBP levels in the DLBCL SU‐DHL‐10 cell line; endogenous in cells; host or cells: SU-DHL-10
Procedure: (§2) Following compound treatment for the indicated time frame (4 to 24 h), cells were solubilized, and the protein content was determined using the BCA protein assay (Pierce Chemical Co). Lysates were fractionated by SDS–polyacrylamide gel electrophoresis (SDS‐PAGE). Membranes were incubated with anti‐CBP (CBP (D6C5) Rabbit mAb #7389, Cell Signaling Technology), anti‐p300 (Anti‐KAT3B/p300 antibody (3G230), Abcam) or anti‐GAPDH (GAPDH Monoclonal Antibody (FF26A), Thermo Fisher Scientific) antibodies overnight. This was followed by incubation with the appropriate horseradish peroxidase‐conjugated anti‐mouse or anti‐rabbit secondary antibodies (Cytiva Europe) for 1 h. Enhanced chemiluminescence detection was then done following the manufacturer's instructions. GAPDH was used as a loading control. Images were quantified with the internal software of the Fusion Solo S (Vilber).

[2] = test system: histone deacetylases (HDACs); design: method as in PMID 26718586; settings: cited from earlier work
CBP [3] = target: T1, CBP; test: CBP catalytic activity inhibition; type: biochemical; settings: means ± S.D., n = 3
Source text: (§3) To answer this question, we initially characterized them both for their inhibition of CBP and p300 catalytic activities.

H3K27 acetylation = test: Western blot of H3K27ac levels in SU‐DHL‐10 cells; type: cell-based; settings: 24 h
TMD8 = test: MTT proliferation assay, TMD8; type: cell-based; settings: Homo sapiens, TMD8, 72 h treatment, n = 2, read-out: IC50 (cell proliferation)
Procedure: as §1

p300 [4] = target: T2, p300 (Homo sapiens, UniProt Q09472); test: p300 catalytic activity inhibition; type: biochemical; settings: means ± S.D., n = 3
Source text: as §3

[5] = test system: SU‐DHL‐2, SU‐DHL‐16, TMD8, and WSU‐DLCL2; test: MTT proliferation assay, additional DLBCL cell lines (summary); type: cell-based; settings: 72 h, range over DLBCL cell lines and both compounds, read-out: viability IC50, range over cell lines
Procedure: as §1

WSU‐DLCL2 = test: MTT proliferation assay, WSU‐DLCL2; type: cell-based; settings: Homo sapiens, WSUDLCL2, WSU‐DLCL2, 72 h treatment, n = 2, read-out: IC50 (cell proliferation)
Procedure: as §1

p300 [6] = target: T2, p300; test: Western blot of p300 levels in SU‐DHL‐10 cells; type: cell-based; design: WB analysis of p300 levels in the SU‐DHL‐10 cell line; endogenous in cells; host or cells: SU-DHL-10; settings: for p300 protein levels (WB): SU‐DHL‐10, increasing concentrations
Procedure: as §2

SU‐DHL‐16 = test: MTT proliferation assay, SU‐DHL‐16; type: cell-based; settings: Homo sapiens, SU‐DHL‐16, 72 h treatment, n = 2, read-out: IC50 (cell proliferation)
Procedure: as §1

SU‐DHL‐2 = test: MTT proliferation assay, SU‐DHL‐2; type: cell-based; settings: Homo sapiens, SU‐DHL‐2, 72 h treatment, n = 2, read-out: IC50 (cell proliferation)
Procedure: as §1

neuroblastoma cell = test system: neuroblastoma cell; design: method as in PMID 34772733; settings: cited from earlier work
[7] = SU-DHL10, SU‐DHL‐10, 24 h treatment
[8] = SU-DHL10, SU‐DHL‐10, 72 h treatment

T2 sequence (Q09472 whole entry): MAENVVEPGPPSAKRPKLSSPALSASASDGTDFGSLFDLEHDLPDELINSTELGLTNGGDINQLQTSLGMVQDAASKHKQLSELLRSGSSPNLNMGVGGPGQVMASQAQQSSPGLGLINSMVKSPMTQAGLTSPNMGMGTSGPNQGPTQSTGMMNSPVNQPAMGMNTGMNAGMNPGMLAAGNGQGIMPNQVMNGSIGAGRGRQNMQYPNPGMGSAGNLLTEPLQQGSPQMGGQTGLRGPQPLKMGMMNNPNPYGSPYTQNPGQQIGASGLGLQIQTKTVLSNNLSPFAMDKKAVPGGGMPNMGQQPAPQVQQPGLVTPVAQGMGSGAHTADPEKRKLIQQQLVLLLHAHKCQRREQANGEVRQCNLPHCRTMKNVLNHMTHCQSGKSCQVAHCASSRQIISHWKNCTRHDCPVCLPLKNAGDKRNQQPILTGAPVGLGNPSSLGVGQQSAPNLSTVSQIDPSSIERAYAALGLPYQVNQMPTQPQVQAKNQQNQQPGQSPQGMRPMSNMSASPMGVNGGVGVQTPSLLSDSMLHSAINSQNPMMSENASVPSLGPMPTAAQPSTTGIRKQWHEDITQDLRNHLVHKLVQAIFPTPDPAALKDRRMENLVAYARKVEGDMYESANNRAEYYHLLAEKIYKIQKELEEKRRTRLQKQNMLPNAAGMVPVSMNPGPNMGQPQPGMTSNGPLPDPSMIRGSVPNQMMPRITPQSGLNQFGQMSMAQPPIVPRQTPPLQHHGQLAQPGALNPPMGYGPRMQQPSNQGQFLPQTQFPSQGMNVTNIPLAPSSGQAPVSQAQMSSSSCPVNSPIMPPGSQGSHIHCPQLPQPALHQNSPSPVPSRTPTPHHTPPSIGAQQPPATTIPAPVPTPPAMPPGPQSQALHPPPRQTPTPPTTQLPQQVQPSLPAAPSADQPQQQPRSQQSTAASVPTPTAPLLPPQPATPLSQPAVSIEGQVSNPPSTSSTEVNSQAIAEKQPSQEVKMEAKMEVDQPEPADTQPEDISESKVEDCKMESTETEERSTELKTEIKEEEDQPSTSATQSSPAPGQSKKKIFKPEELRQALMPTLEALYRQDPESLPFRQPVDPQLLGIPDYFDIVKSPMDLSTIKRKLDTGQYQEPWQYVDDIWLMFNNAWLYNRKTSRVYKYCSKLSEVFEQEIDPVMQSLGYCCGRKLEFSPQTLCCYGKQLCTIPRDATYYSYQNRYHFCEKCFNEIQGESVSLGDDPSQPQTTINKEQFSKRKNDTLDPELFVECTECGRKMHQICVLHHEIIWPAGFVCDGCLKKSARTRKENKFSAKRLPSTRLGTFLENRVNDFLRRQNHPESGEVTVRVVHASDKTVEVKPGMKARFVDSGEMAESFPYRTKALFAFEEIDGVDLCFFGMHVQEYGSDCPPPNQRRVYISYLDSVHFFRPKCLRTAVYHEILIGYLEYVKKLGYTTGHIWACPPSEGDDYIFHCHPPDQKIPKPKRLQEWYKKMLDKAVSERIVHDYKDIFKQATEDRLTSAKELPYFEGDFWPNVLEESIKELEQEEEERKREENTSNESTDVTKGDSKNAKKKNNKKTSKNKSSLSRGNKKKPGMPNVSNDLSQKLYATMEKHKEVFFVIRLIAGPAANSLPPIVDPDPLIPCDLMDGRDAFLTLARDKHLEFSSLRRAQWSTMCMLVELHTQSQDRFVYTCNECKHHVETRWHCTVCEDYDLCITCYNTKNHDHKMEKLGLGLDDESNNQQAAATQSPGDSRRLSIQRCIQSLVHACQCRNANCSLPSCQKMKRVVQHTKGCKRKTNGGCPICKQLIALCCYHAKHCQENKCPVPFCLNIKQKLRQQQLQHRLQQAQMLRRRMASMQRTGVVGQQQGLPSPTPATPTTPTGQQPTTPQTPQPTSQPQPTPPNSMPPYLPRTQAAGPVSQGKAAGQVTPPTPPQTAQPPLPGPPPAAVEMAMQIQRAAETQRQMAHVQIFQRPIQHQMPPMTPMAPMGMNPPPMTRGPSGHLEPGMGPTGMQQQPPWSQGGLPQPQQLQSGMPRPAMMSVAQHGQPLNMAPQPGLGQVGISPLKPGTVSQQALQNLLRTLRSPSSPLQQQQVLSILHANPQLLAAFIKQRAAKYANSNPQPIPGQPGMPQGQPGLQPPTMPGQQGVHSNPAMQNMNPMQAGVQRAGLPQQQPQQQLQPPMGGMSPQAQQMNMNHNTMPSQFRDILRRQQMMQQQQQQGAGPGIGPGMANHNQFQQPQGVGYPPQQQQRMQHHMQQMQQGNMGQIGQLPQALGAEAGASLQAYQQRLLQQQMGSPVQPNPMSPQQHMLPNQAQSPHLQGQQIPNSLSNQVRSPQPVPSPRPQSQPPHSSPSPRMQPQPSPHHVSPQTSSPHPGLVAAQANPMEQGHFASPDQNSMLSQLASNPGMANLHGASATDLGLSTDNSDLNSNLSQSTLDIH
T1 sequence (Q92793 whole entry): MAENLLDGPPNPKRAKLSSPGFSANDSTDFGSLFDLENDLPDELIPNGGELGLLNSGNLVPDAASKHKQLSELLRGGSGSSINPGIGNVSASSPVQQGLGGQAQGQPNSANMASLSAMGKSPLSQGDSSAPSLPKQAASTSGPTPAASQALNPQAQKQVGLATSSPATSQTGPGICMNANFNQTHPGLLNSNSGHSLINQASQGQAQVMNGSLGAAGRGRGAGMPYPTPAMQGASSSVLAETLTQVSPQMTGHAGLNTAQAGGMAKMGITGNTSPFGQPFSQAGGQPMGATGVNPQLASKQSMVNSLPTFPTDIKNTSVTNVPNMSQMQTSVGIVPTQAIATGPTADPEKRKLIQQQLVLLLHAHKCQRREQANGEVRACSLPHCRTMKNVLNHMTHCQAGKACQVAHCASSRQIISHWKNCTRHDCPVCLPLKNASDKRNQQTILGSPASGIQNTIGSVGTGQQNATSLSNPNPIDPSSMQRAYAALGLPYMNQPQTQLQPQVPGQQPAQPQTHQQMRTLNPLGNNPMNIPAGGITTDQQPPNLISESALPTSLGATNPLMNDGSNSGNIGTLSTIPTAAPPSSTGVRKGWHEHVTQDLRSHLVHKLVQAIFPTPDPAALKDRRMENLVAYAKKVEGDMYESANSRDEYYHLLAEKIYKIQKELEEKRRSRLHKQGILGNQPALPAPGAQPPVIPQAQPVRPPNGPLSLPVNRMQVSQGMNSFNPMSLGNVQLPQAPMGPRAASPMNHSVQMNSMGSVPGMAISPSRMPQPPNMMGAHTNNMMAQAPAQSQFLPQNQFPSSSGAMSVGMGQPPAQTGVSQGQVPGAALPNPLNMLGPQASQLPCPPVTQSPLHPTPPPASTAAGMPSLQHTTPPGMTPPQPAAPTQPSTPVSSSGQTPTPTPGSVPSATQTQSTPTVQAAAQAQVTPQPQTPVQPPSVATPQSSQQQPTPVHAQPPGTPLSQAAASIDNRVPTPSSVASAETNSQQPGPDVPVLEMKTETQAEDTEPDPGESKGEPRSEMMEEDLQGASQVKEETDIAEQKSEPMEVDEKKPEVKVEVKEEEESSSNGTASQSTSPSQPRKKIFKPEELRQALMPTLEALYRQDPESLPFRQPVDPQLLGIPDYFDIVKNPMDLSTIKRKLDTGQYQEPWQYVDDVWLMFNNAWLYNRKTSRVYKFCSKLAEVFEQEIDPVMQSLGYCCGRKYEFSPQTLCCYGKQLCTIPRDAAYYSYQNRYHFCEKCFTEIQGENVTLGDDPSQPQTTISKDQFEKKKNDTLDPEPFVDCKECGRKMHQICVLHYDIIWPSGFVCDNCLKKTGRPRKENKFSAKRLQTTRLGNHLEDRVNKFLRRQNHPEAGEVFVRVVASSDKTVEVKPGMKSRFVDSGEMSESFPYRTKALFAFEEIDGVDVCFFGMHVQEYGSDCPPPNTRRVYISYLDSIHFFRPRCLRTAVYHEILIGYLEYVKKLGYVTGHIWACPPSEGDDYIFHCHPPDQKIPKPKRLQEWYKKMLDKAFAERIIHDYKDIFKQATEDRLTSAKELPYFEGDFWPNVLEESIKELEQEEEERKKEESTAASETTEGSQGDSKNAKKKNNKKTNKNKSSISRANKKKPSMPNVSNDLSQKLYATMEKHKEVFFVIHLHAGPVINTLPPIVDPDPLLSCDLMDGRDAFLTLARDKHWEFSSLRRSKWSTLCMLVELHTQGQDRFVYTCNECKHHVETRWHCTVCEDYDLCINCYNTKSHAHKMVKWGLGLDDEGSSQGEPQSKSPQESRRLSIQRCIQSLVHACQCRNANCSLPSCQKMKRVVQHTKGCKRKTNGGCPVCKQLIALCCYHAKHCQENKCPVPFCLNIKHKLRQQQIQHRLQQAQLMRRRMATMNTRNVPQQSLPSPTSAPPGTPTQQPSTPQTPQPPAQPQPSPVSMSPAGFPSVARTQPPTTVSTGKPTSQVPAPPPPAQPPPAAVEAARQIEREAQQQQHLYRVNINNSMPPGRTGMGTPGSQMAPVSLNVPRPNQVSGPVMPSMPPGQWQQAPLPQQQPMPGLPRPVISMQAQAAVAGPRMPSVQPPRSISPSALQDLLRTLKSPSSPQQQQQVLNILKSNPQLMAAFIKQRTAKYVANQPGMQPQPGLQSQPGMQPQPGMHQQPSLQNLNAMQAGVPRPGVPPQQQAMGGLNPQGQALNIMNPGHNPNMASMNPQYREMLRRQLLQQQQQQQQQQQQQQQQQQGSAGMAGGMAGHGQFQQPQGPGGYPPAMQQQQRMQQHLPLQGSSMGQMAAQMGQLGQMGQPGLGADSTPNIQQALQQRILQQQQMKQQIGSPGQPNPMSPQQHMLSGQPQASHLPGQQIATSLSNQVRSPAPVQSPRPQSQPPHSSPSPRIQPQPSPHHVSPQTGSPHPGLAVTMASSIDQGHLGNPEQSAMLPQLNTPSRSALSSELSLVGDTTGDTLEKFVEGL

In the case of `O=C1CCC(N2C(=O)c3ccccc3C2=O)C(=O)N1` (centres unmarked) [Thalidomide, thalidomide, reference compound], the IC50 (SU‐DHL‐10 cells; [7]) is reported as over 20 µM and the “effect on cell viability” value (SU‐DHL‐10 cells; SU‐DHL‐10, 24 h, up to 20 μM) is reported as “no significant effects on cell viability”.
In the case of `CC1=NN(c2ccc(C(=O)O)cc2)C(=O)/C1=C\c1ccc(-c2cc(C)c(C)cc2[N+](=O)[O-])o1` [Compound C646, C646, reference compound], the IC50 (SU‐DHL‐10 cells; [7]) is listed as 12.2 ± 3.02 µM, the “CBP levels (WB)” value (CBP [1]; SU‐DHL‐10, 10 μM, 8 h) is listed as “no effect on CBP levels” and the “inhibition of histone deacetylases (HDACs)” value [2] is listed as “inhibit histone deacetylases (HDACs) at low micromolar concentrations”. The IC50 (CBP [3]) was 210 ± 10 nM and the H3K27 acetylation (H3K27 acetylation; SU‐DHL‐10, 5 and 10 μM) was “did not reduce acetylation”.
With `CNC(=O)Nc1ccc2c(c1)CC[C@@]21OC(=O)N(CC(=O)N(Cc2ccc(F)cc2)[C@@H](C)C(F)(F)F)C1=O` [Compound A485, A‐485] the H3K27 acetylation (H3K27 acetylation; SU‐DHL‐10, 5 and 10 μM) was “reduced H3K27 acetylation in a dose‐dependent fashion”.
`CC(C)C[C@@H](C=O)NC(=O)[C@H](CC(C)C)NC(=O)[C@H](CC(C)C)NC(=O)OCc1ccccc1` [MG132, reference compound] (Cbz-Leu-Leu-Leu-aldehyde) showed an IC50 (SU‐DHL‐10 cells; [7]) of 0.144 ± 0.002 µM.
For `CC1=NN(c2ccc(C(=O)NCCOCCOCCNC(=O)COc3cccc4c3C(=O)N(C3CCC(=O)NC3=O)C4=O)cc2)C(=O)/C1=C\c1ccc(-c2cc(C)c(C)cc2[N+](=O)[O-])o1` (centres unmarked) [Compound 2, (Z)‐4‐(4‐((5‐(4,5‐dimethyl‐2‐nitrophenyl)furan‐2‐yl)methylene)‐3‐methyl‐5‐oxo‐4,5‐dihydro‐1 H‐pyrazol‐1‐yl)‐N‐(2‐(2‐(2‐(2‐((2‐(2,6‐dioxopiperidin‐3‐yl)‐1,3‐dioxoisoindolin‐4‐yl)oxy)acetamido)ethoxy)ethoxy)ethyl)benzamide], the IC50 (TMD8) was 7.81 ± 3.04 µM, the IC50 (p300 [4]) was 600 to 900 nM and the IC50 [5] was 2 to 8 µM. It also gave an IC50 (SU‐DHL‐10 cells; [7]) of 6.44 ± 0.81 µM, an IC50 (SU‐DHL‐10 cells; [8]) of 6.34 ± 1.76 µM and an IC50 (WSU‐DLCL2) of 5.23 ± 0.85 µM. The “CBP levels (WB)” value (CBP [1]; SU‐DHL‐10, 2.5 μM, 8 h) was “slightly less active”, the “CBP levels (WB)” value (CBP [1]; SU‐DHL‐10, 2.5 μM, 24 h) was “returned to the initial levels” and the “decrease of protein (CBP) levels” value (CBP [1]; SU‐DHL‐10, 10 μM, 24 h) was “roughly 70%”. For the same compound, the “p300 levels (WB)” value (p300 [6]; SU‐DHL‐10, 2.5 μM, 8 h) was “decreased protein levels”, the “p300 levels (WB)” value (p300 [6]; SU‐DHL‐10, 2.5 μM, 24 h) was “no difference was observed” and the “p300 levels (WB)” value (p300 [6]; SU‐DHL‐10, 10 μM, 24 h) was “significantly reduced p300 levels”. The IC50 (SU‐DHL‐16) was 8.02 ± 2.46 µM, the IC50 (CBP [3]) was 600 to 900 nM and the IC50 (SU‐DHL‐2) was 4.96 ± 0.33 µM.
`CC1=NN(c2ccc(C(=O)NCCCOCCOCCOCCCNC(=O)COc3cccc4c3C(=O)N(C3CCC(=O)NC3=O)C4=O)cc2)C(=O)/C1=C\c1ccc(-c2cc(C)c(C)cc2[N+](=O)[O-])o1` (centres unmarked) [Compound 1, (Z)‐4‐(4‐((5‐(4,5‐dimethyl‐2‐nitrophenyl)furan‐2‐yl)methylene)‐3‐methyl‐5‐oxo‐4,5‐dihydro‐1 H‐pyrazol‐1‐yl)‐N‐(1‐((2‐(2,6‐dioxopiperidin‐3‐yl)‐1,3‐dioxoisoindolin‐4‐yl)oxy)‐2‐oxo‐7,10,13‐trioxa‐3‐azahexadecan‐16‐yl)benzamide] showed an IC50 (TMD8) of 1.95 ± 0.069 µM, an IC50 (p300 [4]) of 600 to 900 nM and an IC50 [5] of 2 to 8 µM. For the same compound, the IC50 (SU‐DHL‐10 cells; [7]) was 3.44 ± 0.12 µM, the IC50 (SU‐DHL‐10 cells; [8]) was 2.73 ± 0.072 µM and the IC50 (WSU‐DLCL2) was 3.24 ± 0.28 µM. The “CBP levels (WB)” value (CBP [1]; SU‐DHL‐10, 2.5 μM, 8 h) was “reduced the levels of CBP; also recorded: decreased the levels of CBP”, the “CBP levels (WB)” value (CBP [1]; SU‐DHL‐10, 2.5 μM, 24 h) was “returned to the initial levels” and the “decrease of protein (CBP) levels” value (CBP [1]; SU‐DHL‐10, 10 μM, 24 h) was “roughly 70%”. The “CBP levels (WB), combination with C646” value (CBP [1]; SU‐DHL‐10, 1 2.5 μM + C646 10 μM, 8 h) was “did not affect CBP levels”, the “CBP degradation (WB), co‐incubation with MG132” value (CBP [1]; SU‐DHL‐10, 1 2.5 μM + MG132 10 μM, 8 h) was “abolishes 1‐induced CBP degradation” and the “CBP protein levels (WB)” value (CBP [1]; SU‐DHL‐10, increasing concentrations, 24 h) was “dose‐dependent reduction; also recorded: slightly better efficacy on CBP compared to the previously reported PROTAC JQAD1”. The “p300 levels (WB)” value (p300 [6]; SU‐DHL‐10, 2.5 μM, 8 h) was “decreased protein levels”, the “p300 levels (WB)” value (p300 [6]; SU‐DHL‐10, 2.5 μM, 24 h) was “no difference was observed” and the “p300 levels (WB)” value (p300 [6]; SU‐DHL‐10, 10 μM, 24 h) was “significantly reduced p300 levels”. For the same compound, the “p300 protein levels (WB)” value (p300 [6]; 24 h) was “dose‐dependent reduction”, the IC50 (SU‐DHL‐16) was 2.99 ± 0.19 µM and the IC50 (CBP [3]) was 600 to 900 nM. The H3K27 acetylation (H3K27 acetylation; SU‐DHL‐10, 5 μM) was “decreased H3K27 acetylation” and the IC50 (SU‐DHL‐2) was 2.05 ± 0.068 µM.
In the case of JQAD1, the “IC50, neuroblastoma cell viability” value (neuroblastoma cell) is given as “nanomolar range”, the “p300 protein levels (WB)” value (p300 [6]; 24 h) is given as “slightly higher potency” and the H3K27 acetylation (H3K27 acetylation; SU‐DHL‐10, 5 and 10 μM) is given as “reduced H3K27 acetylation in a dose‐dependent fashion”.
